{"source": "patent US20080249001A1", "about": "“AGENTS THAT ALLEVIATE SIDE-EFFECTS CAUSED BY CHEMOTHERAPY AGENTS” (priority 2006, published 2008)", "key": {"[1]": {"tested_on": "mouse bone-marrow cells (CFU-E colonies)", "assay": "in vitro CFU-E colony assay in methylcellulose semisolid medium under the existence of EPO", "format": "cell-based", "settings": "for CFU-E inhibiting action (inhibition of expression of CFU-E colonies) / CFU-E inhibiting action (expression of CFU-E colonies): 48 hours", "description": "(§1) More specifically, the in vitro colony assay method wherein a methylcellulose semisolid medium is used is generally used as the method for determining CFU-E. It is the most suitable experimental system for finding the action of improving the decrease of CFU-E caused by chemotherapy agents. […] In the oral administration to rats, the single administration of 1.2 g/kg of arginine makes the blood concentration thereof reach around 600 μM. Therefore, the increase of CFU-E dependent on the administered dose is expected in the oral administration. In human beings, too, it is expected that the number of CFU-E increases depending on the blood concentration of arginine by the oral administration.\nThe in vitro CFU-E colony assay was conducted as follows. After making a male BDF-1 mouse of 11 weeks old (by Charles River Laboratories Japan, Inc.) die by the cervical dislocation method, the bone-marrow cells were isolated from the thighbone and suspended in the IMDM medium (by Invitrogen Corporation) which contained 10% FCS (by JRH Biosciences). The bone-marrow cells were centrifuged at 1500 rpm for 10 minutes at 4° C. Then, the precipitated bone-marrow cells were substituted on the IMDM medium without an amino acid, and the number of the cells was determined. 1 mL of a methylcellulose semisolid medium wherein the bone-marrow cells were suspended in the IMDM medium of ⅓ concentration (0.03, 0.1, 0.3 and 1.0 U/mL of rHuEPO by Chugai Pharmaceutical Co., Ltd.; 100 μM of 2-mercaptoethanol by Wako Pure Chemical Industries, Ltd.; 15% FCS by JRH Biosciences; 0.8% methylcellulose, IMDM solution M3134 containing methylcellulose by StemCell Technologies Inc.; 1% BSA by Sigma-Aldrich Japan K.K.; and bone-marrow cells 2.5×10^5/mL) was added to a dish of 3.5 cm in diameter (Nalge Nunc International K.K.). After the medium was cultured at 37° C. under 5% CO2 for 48 hours, the number of CFU-E colonies was determined by using an inverted microscope. […] Data is indicated as the average value.\nThe in vitro CFU-E colony assay was conducted in the EPO concentration of the maximal action amount thereof. […] Then, the number of CFU-E colonies was determined by using an inverted microscope. […] Data is indicated as the average value.\nThe CFU-E colony assay was conducted by the same method as that of Example 1. […] Data is indicated as the average value. The vertical axis is the relative value (%) when regarding the number of CFU-E colonies in the control case as 100%.\nThe in vitro CFU-E colony assay was conducted in the EPO concentration of the maximal action amount thereof. The bone-marrow cells were prepared by the same method as that of Example 1, using a male BDF-1 mouse of 12 weeks old (by Charles River Laboratories Japan, Inc.). Irinotecan hydrochloride was further added to a methylcellulose semisolid medium wherein the bone-marrow cells were suspended in the IMDM medium of ⅓ concentration (1.0 U/mL of rHuEPO by Chugai Pharmaceutical Co., Ltd.; 100 μM of 2-mercaptoethanol by Wako Pure Chemical Industries, Ltd.; 30% FCS by JRH Biosciences; 0.8% methylcellulose, IMDM solution M3134 containing methylcellulose by StemCell Technologies Inc.; 1% BSA by Sigma-Aldrich Japan K.K.; and bone-marrow cells 2.5×10^5/mL), so that the final concentration of irinotecan hydrochloride became 1 μM and 10 μM. After the medium was cultured at 37° C. under 5% CO2 for 48 hours, the number of CFU-E colonies was determined by using an inverted microscope. […] Data is indicated as the average value.\nThe CFU-E colony assay was conducted by the same method as that of above (1), using a male BDF-1 mouse of 11 weeks old (by Charles River Laboratories Japan, Inc.). The medium to which only 3 μM of irinotecan hydrochloride in its final concentration was added and the medium to which irinotecan hydrochloride in the same concentration as above and 600 uM of arginine were simultaneously further added were prepared and the number of CFU-E colonies was determined. […]"}, "[2]": {"tested_on": "mouse bone-marrow cells (CFU-E colonies)", "assay": "in vitro CFU-E colony assay under the existence of EPO mimic peptide EMP1", "format": "cell-based", "description": "The bone-marrow cells were prepared by the same method as that of Example 1, using a male BDF-1 mouse of 10 weeks old (by Charles River Laboratories Japan, Inc.). 1 mL of a methylcellulose semisolid medium wherein the bone-marrow cells were suspended in the IMDM medium of ⅓ concentration (1, 3, 10 and 30 μM of EMP1; 100 μM of 2-mercaptoethanol by Wako Pure Chemical Industries, Ltd.; 24% FCS by JRH Biosciences; 0.8% methylcellulose, IMDM solution M3134 containing methylcellulose by StemCell Technologies Inc.; 2% BSA by Sigma-Aldrich Japan K.K.; and bone-marrow cells 2×10^5/mL) was added to a dish of 3.5 cm in diameter (Nalge Nunc International K.K.). After the medium was cultured at 37° C. under 5% CO2 for 48 hours, the number of CFU-E colonies was determined by using an inverted microscope. […] Data is indicated as the average value.\nThe in vitro CFU-E colony assay was conducted in the EMP1 concentration of the maximal action amount thereof. The bone-marrow cells were prepared by the same method as that of Example 1, using a male BDF-1 mouse of 10 weeks old (by Charles River Laboratories Japan, Inc.). […] After each medium was cultured at 37° C. under 5% CO2 for 48 hours, the number of CFU-E colonies was determined by using an inverted microscope. […] Data is indicated as the average value. The vertical axis is the relative value (%) when regarding the number of CFU-E colonies in the control case as 100%."}, "[3]": {"assay": "blood concentration of arginine after oral administration to rats", "format": "in vivo", "settings": "single administration of 1.2 g/kg", "description": "as §1"}}, "note": "Where a name gives a salt, the structure may show the parent alone. Bridges are numbered along the chain shown (N, C = ends). Where no end group is shown, it is not given here."}
{"molecule": "COc1cc([C@@H]2c3cc4c(cc3[C@@H](O[C@@H]3O[C@@H]5CO[C@@H](C)O[C@H]5[C@H](O)[C@H]3O)[C@H]3COC(=O)[C@H]23)OCO4)cc(OC)c1O", "note": "[VP-16, etoposide]", "values": [{"measurement": "CFU-E inhibiting action (inhibition of expression of CFU-E colonies)", "setting": "[1]; 1 nM VP-16, 1 U/mL EPO, FIG. 2", "result": 10, "unit": "%"}, {"measurement": "CFU-E inhibiting action (inhibition of expression of CFU-E colonies)", "setting": "[1]; 10 nM VP-16, 1 U/mL EPO, FIG. 2", "result": 30, "unit": "%"}, {"measurement": "CFU-E inhibiting action (expression of CFU-E colonies)", "setting": "[1]; 100 nM VP-16, 1 U/mL EPO, FIG. 2", "result": "nearly completely inhibited"}, {"measurement": "decrease of number of CFU-E colonies due to single addition", "setting": "[2]; 10 nM VP-16 alone, 30 μM EMP1, relative to control 100%, FIG. 7", "result": "about 30%"}]}
{"molecule": "N=C(N)NCCC[C@H](N)C(=O)O", "note": "[arginine]", "values": [{"measurement": "number of CFU-E colonies improved on simultaneous addition of arginine", "setting": "[1]; 600 uM arginine + 10 nM VP-16, 1 U/mL EPO, relative value to control 100%, FIG. 3", "result": "~90", "unit": "%"}, {"measurement": "increase of number of CFU-E colonies as compared with single addition of irinotecan hydrochloride", "setting": "[1]; 600 uM arginine + 3 μM irinotecan hydrochloride, 1 U/mL EPO, FIG. 5", "result": "~30", "unit": "%"}, {"measurement": "number of CFU-E colonies improved on simultaneous addition of arginine", "setting": "[2]; 600 μM arginine + 10 nM VP-16, 30 μM EMP1, relative value to control 100%, FIG. 7", "result": "~90", "unit": "%"}, {"measurement": "blood concentration", "setting": "[3]", "result": "around 600 μM"}]}
{"molecule": "CCc1c2c(nc3ccc(OC(=O)N4CCC(N5CCCCC5)CC4)cc13)-c1cc3c(c(=O)n1C2)COC(=O)[C@]3(O)CC", "note": "[irinotecan hydrochloride]", "values": [{"measurement": "CFU-E inhibiting action (inhibition of expression of CFU-E colonies)", "setting": "[1]; 1 μM irinotecan hydrochloride, 1 U/mL EPO, FIG. 4", "result": 30, "unit": "%"}, {"measurement": "CFU-E inhibiting action (expression of CFU-E colonies)", "setting": "[1]; 10 μM irinotecan hydrochloride, 1 U/mL EPO, FIG. 4", "result": "nearly completely inhibited"}]}
{"molecule": "GGTYSCHFGPLTWVCKPQGG-NH2, C6-C15 disulfide bonding (disulfide 6-15; N-terminus assumed; SMILES CC(C)C[C@@H]1NC(=O)[C@@H]2CCCN2C(=O)CNC(=O)[C@H](Cc2ccccc2)NC(=O)[C@H](Cc2c[nH]cn2)NC(=O)[C@@H](NC(=O)[C@H](CO)NC(=O)[C@H](Cc2ccc(O)cc2)NC(=O)[C@@H](NC(=O)CNC(=O)CN)[C@@H](C)O)CSSC[C@@H](C(=O)N[C@@H](CCCCN)C(=O)N2CCC[C@H]2C(=O)N[C@@H](CCC(N)=O)C(=O)NCC(=O)NCC(N)=O)NC(=O)[C@H](C(C)C)NC(=O)[C@H](Cc2c[nH]c3ccccc23)NC(=O)[C@H]([C@@H](C)O)NC1=O) [EMP1]", "values": [{"measurement": "maximal action amount (CFU-E colony formation)", "setting": "[2]; EMP1 1, 3, 10 and 30 μM, 48 hours culture, FIG. 6", "result": "≥ 10", "unit": "µM"}]}
